The logP is a log measure of how a compound divides between an organic and an aqueous phase. Read a low logP as lower lipophilicity. A word on the solubility: it is the concentration that dissolves in the medium under given conditions.

The values below come from article PMC9077470 (RSC Advances, 2018).

Molecules are shown by their SMILES. Converted amounts (≈) assume the structure as drawn.

For series [1], the system named is TNBS-induced experimental colitis. Kind of series: TNBS-induced colitis: body weight, survival rates, overall effect. The series is classed as in vivo, mice. The settings on record: TNBS colitis mice; Ols-DB as enema, others i.g. The method, then:
Colitis was induced according to the previous study.[18,19] Briefly, after 12 h of fasting, mice were anesthetized with intraperitoneal pentobarbital sodium (35 mg kg^-1) before the induction of colitis. 0.1 mL of 50% (v/v) ethanol contained 2.5% (v/v) TNBS was instilled into the colon 3.5-4 cm from the anus by a gavage needle. The mice were kept in a head-down position for 30 s to prevent leakage of the intracolonic instillation. Mice in the control group received normal saline instead of TNBS solution, a physical mixture of 5-ASA and sodium butyrate was used as the positive control. […] The treatments were given once daily for 5 continuous days starting 24 hours after the induction of colitis. After the induction of colitis, the body weight of each mice was recorded daily, and the curves of weight changes for each group were drawn to evaluate the TNBS-induced colitis. Meanwhile, the death of mice in each group was recorded daily and the final survival rates of mice were calculated.

Series [2] in a line: In vitro incubation with stomach contents of rats. The series is classed as in vitro ADME. The settings on record: rat stomach contents homogenate, pH 1.2, 37 °C, after 2 h of incubation. The procedure:
(§1) After anesthetized with diethyl ether, rats were sacrificed and their contents of stomach and small intestine were collected and homogenized respectively, the homogenate was diluted with buffer solution (pH 1.2 for stomach contents, pH 6.8 for small intestine contents) to 20% (w/v). […] After 0.25, 0.5, 1.0, 1.5, 2.0, 3.0 and 4.0 h of incubation, 200 μL of samples were collected and replaced with the same volume of blank homogenate, then samples were centrifuged at 13 000 rpm for 5 min, filtered with membrane filter, and analyzed by HPLC. The residual contents of each prodrug in homogenate were calculated and the hydrolysis curves were drawn.

Series [3] is described as follows: In vivo incubation in the colon of rats. The settings on record: injected into tied rat colon, 6 h. The method, then: 6 hours later, rats were sacrificed and their colon contents were separated and homogenized in 40 mL of phosphate buffer (pH 7.4). The homogenate was sonicated for 5 min and centrifuged at 13 000 rpm for 5 min, then 0.2 mL of the supernatant was collected and mixed with 0.8 mL of methanol. Finally, samples were centrifuged, filtered and analyzed by HPLC. The residual contents of each prodrug in colon contents were calculated, and the hydrolysis ratio was calculated by the following equation: [drawing 2] where Wr is the residual amount of prodrugs in the colon contents and Wi is the initial amount of prodrugs that administered to rats.

Series [4] in a line: Partition coefficients in n-octanol/phosphate buffer (pH 7.4). The class given is physicochemical. The note with it: means ± SD, n = 3. The method, then: The phosphate buffer and octanol were mutually saturated at 20–22 °C before use. Samples were dissolved in the aqueous phase and the n-octanol/phosphate buffer mixtures were shaken for 24 h to reach a distribution equilibrium. The volumes of each phase were chosen so that the solute concentration in the aqueous phase, before and after distribution, could readily be measured using HPLC method. The partition coefficients (P) were calculated from the following equation: [drawing 1] where Ci and Cw represent the solute concentrations in the aqueous buffer phase before and after distribution, respectively, Vw represents the volume of the aqueous phase, and Vo is the volume of the octanol phase.[16]

A short description of series [5]: Aqueous solubility (equilibrium, distilled water). The series is classed as physicochemical. The settings on record: 25 °C, thermodynamic from solid, 25 ± 2 °C, means ± SD, n = 3, read-out: S (aqueous solubility). The procedure: The mixtures were placed in an ultrasonic water bath for 10 min and then shaken for 24 h to establish a saturation equilibrium. Upon filtration, the filtrate was diluted with an appropriate amount of water and the mixture was analyzed by HPLC, the concentration of each compound in its saturated solution was calculated.

Series [6] relates to MPO activity in colonic tissues. Kind of series: TNBS-induced colitis: MPO activity in colonic tissues. The class given is in vivo, mice. The method, then: Colitis was induced according to the previous study.[18,19] Briefly, after 12 h of fasting, mice were anesthetized with intraperitoneal pentobarbital sodium (35 mg kg^-1) before the induction of colitis. 0.1 mL of 50% (v/v) ethanol contained 2.5% (v/v) TNBS was instilled into the colon 3.5-4 cm from the anus by a gavage needle. The mice were kept in a head-down position for 30 s to prevent leakage of the intracolonic instillation. Mice in the control group received normal saline instead of TNBS solution, a physical mixture of 5-ASA and sodium butyrate was used as the positive control. […] The treatments were given once daily for 5 continuous days starting 24 hours after the induction of colitis. […] Samples were freeze-thawed three times, after which sonication was repeated. Homogenates were then centrifuged at 13 000 rpm for 30 min and MPO was extracted from the resulting supernatant.[25] MPO activity was measured by the assay kit according to its provider's instructions.

The subject of series [7] is SOD, MDA, GSH, GSH-Px in colonic tissues. Kind of series: TNBS-induced colitis: levels of SOD, MDA, GSH and GSH-Px in colonic tissues. The class given is in vivo, mice. The settings on record: vs TNBS group, p < 0.01. The procedure: Colitis was induced according to the previous study.[18,19] Briefly, after 12 h of fasting, mice were anesthetized with intraperitoneal pentobarbital sodium (35 mg kg^-1) before the induction of colitis. 0.1 mL of 50% (v/v) ethanol contained 2.5% (v/v) TNBS was instilled into the colon 3.5-4 cm from the anus by a gavage needle. The mice were kept in a head-down position for 30 s to prevent leakage of the intracolonic instillation. Mice in the control group received normal saline instead of TNBS solution, a physical mixture of 5-ASA and sodium butyrate was used as the positive control. […] The treatments were given once daily for 5 continuous days starting 24 hours after the induction of colitis. Colon tissue samples were homogenized with normal saline, the homogenate (10%, w/w) was centrifuged at 13 000 rpm for 15 min, and the resulting supernatant was diluted to 1% (w/w) for further assay. The protein levels of the colon homogenate were detected by a BCA protein assay kit. Then the activities of SOD and GSH-Px, and the levels of MDA and GSH of samples in each group were measured by the assay kits according to the provider's instructions.

In series [8] the test system is TNBS-induced experimental colitis. In words: TNBS-induced colitis: disease activity index (DAI). The class given is in vivo, mice. The settings on record: vs positive control (5-ASA + sodium butyrate). The method, then: Colitis was induced according to the previous study.[18,19] Briefly, after 12 h of fasting, mice were anesthetized with intraperitoneal pentobarbital sodium (35 mg kg^-1) before the induction of colitis. 0.1 mL of 50% (v/v) ethanol contained 2.5% (v/v) TNBS was instilled into the colon 3.5-4 cm from the anus by a gavage needle. The mice were kept in a head-down position for 30 s to prevent leakage of the intracolonic instillation. Mice in the control group received normal saline instead of TNBS solution, a physical mixture of 5-ASA and sodium butyrate was used as the positive control. […] The treatments were given once daily for 5 continuous days starting 24 hours after the induction of colitis. DAI is ranged from 0 to 4 and it is the sum of scores given for body weight loss, stool consistency and presence or absence of fecal blood. The fecal occult blood of mice was evaluated by the ο-tolidine method.[22] A small amount of feces samples were smeared on a white plate. 2-3 drops of ο-tolidine solution (10 g L^-1, dissolved in acetic acid) were added into samples and mixed evenly. Then 2-3 drops of 3% H2O2 solution were added into the mixture, meanwhile, start the time and observe immediately. Scored as: normal, weak positive, green to light green developing over 2 min; +, positive, greenish-blue to deep green developing within 1 min; ++, positive, blue to bluish-green developing within 5-20 s; +++, very strong positive, intense blue color developing immediately.[23]

Series [9] in a line: In vitro incubation with small intestine contents of rats. The class given is in vitro ADME. The note with it: rat small intestine contents homogenate, pH 6.8, 37 °C, after 4 h of incubation. The procedure: as §1
For series [10] the following is noted: no reference given; cited from earlier work.

In the case of `CCCC(=O)Oc1ccc(N)cc1C(=O)O` [5-ASB, 5-aminosalicylic acid butyrate], the “therapeutic effects on the TNBS-induced UC (overall)” value in [1] is on record as “certain therapeutic effects”. Moreover, the “residual content of prodrug in stomach contents” value in series [2] is “hardly hydrolyzed”. The “hydrolysis ratio after in vivo incubation in rat colons” value in series [3] stood at 6.79%. Moreover, in series [4], the “P (partition coefficient)” value was 1.45 ± 0.10 and the logP at 24 h came out at 0.16 ± 0.03. Besides, the solubility at 24 h in series [5] stood at 310 ± 50 mg/mL (≈ 1390 mM). The “MPO activity in colonic tissues” value in series [6] (vs TNBS group, p < 0.01) is “significantly decreased”. In addition, in series [6] (vs positive control), the “MPO activity, compared with positive control” value is on record as “significantly better than the positive control”. In [7], the “GSH-Px activities in the colon” value is on record as “increased”, the “MDA levels in the colon” value is listed as “significantly decreased” and the “SOD activities in the colon” value was “increased”. Also, the “DAI, compared with positive control” value in series [8] is “better effects than the positive control”. Moreover, the “residual content of prodrug in small intestine contents” value in series [9] is reported as 100%.
`CCCC(=O)O` [Butyrate]: the “half-time (t1/2)” value in [10] is on record as 6 min.
Regarding `Nc1ccc(O)c(C(=O)O)c1` [5-ASA, 5-aminosalicylic acid, reference compound], in series [4], the “P (partition coefficient)” value came to 4.47 ± 0.21 and the logP at 24 h came to 0.65 ± 0.02.
